Data from patent publication US20150327444A1, “PROCESS FOR THE OVERPRODUCTION OF SHIKIMIC ACID AND PHENOLIC ACIDS IN FRUIT AND VEGETABLE CROPS” (Instituto Tecnologico y de Estudios Superiores de Monterry, priority 2013, published 2015).

Columns and labels:
carrots (Daucus carota) [1] = assay: Overproduction of SA and PC by wounding stress and sprayed glyphosate 482 g/L in carrot tissue (Example 6)
Experimental: (§1) The plant material used in this example comprised carrots (Daucus carota) obtained from a local supermarket (Monterrey, N. L., Mexico), which were washed and disinfected with chlorinated water in a concentration of 200 ppm, pH 6.5, in a ratio of 1:3 kg of plant material:liters of chlorinated water, for 10 min.
(§2) This stage was carried out by grating the carrot with a commercial vegetable grater. Stressed grated carrots having a diameter of 0.7 cm were obtained.
(§3) In this stage, the stressed grated plant tissue was treated by spraying (commercial sprayer) 100 mL of a concentrated solution of glyphosate (482 g/L).
Finally, the treated grated material was incubated at 25° C. for 24 hours at atmospheric pressure with a relative humidity of 65%, in total darkness, to determine the combined effect of wounding stress and glyphosate application on the accumulation of SA and PC.

carrots (Daucus carota) [2] = assay: Effect of drying on SA and PC in wounding-stressed, glyphosate-sprayed carrot tissue (Example 7); conditions: for Increase in concentration in dehydrated glyphosated grated material stored for 24 hours: vs grated carrot prior to storage (0 hours)
Experimental: as §1, with “min. This stage was carried out by grating the carrot with a commercial vegetable grater.” for “min.”

carrots (Daucus carota) [3] = assay: Effect of grinding on SA and PC in wounding-stressed, glyphosate-sprayed carrot tissue (Example 8)
Experimental: as §1, §2, §3
The treated grated material was incubated at 25° C. […] at atmospheric pressure with a relative humidity of 65%, in total darkness, to determine the combined effect of wounding stress and glyphosate application on the accumulation of SA and PC.

carrots (Daucus carota) [4] = assay: Effect of wounding stress on accumulation of SA in grated carrot during storage (Example 1); conditions: vs grated carrot prior to storage (0 hours); 25° C., no glyphosate
Experimental: as §1
Stage a) The previously washed and disinfected carrots were subjected to post-harvest abiotic stress.
as §2
Stage b) Incubation of the grated carrot stressed in a) to encourage the production and accumulation of SA and PC. […]
The SA was extracted from the horticultural crop using two different processes based on the method of detection and quantification which was to be used (spectrophotometry or chromatography). […]
The SA extracts were analyzed following a method reported by Zelaya, I. A., Anderson, J. A., Owen, M. D. and Landes, R. D. Evaluation of spectrophotometric and HPLC methods for shikimic acid determination in plants: models in glyphosate-resistant and susceptible crops. […] The SA oxidized through the effect of the reaction was detected at 382 nm using a microplates reader (Synergy HT, Bio-Tek Instruments Inc., Winooski, Vt., USA). A standard curve for SA was constructed (1-1000 μM) to quantify the compound. […]

carrots (Daucus carota) [5] = assay: Effect of drying on accumulation of SA in wounding-stressed grated carrot (Example 2); conditions: vs grated carrot prior to storage (0 hours)
Experimental: as §1
(§4) This stage was carried out by grating the carrot with a commercial vegetable grater. Stressed grated carrots having a diameter of 0.7 cm were obtained. […]
(§5) The SA extracts were analyzed following a method reported by Zelaya, I. A., Anderson, J. A., Owen, M. D. and Landes, R. D. Evaluation of spectrophotometric and HPLC methods for shikimic acid determination in plants: models in glyphosate-resistant and susceptible crops. […] The SA oxidized through the effect of the reaction was detected at 382 nm using a microplates reader (Synergy HT, Bio-Tek Instruments Inc., Winooski, Vt., USA). A standard curve for SA was constructed (1-1000 μM) to quantify the compound. The SA concentration was expressed as mg per kg of carrots in dry base (DB). The moisture content in the samples was determined by the method of drying in a stove (AACC 44-15A).

carrots (Daucus carota) [6] = assay: Effect of grinding on accumulation of SA in wounding-stressed grated carrot (Example 3); conditions: vs grated carrot prior to storage (0 hours)
Experimental: as §1, §4, §5

carrots (Daucus carota) [7] = assay: Effect of method of application (submergence or spraying) of glyphosate solution on SA accumulation in grated carrot (Example 4); conditions: glyphosate 482 g/L, 24 hours at 25° C.
Source text: This difference is attributed to the removal of signal molecules which induce the response to the wounding as part of the submergence process. The (at least partial) removal of extracellular adenosine triphosphate (eATP, produced by the wounding stress effect) occurs in the submerged material, and this may be related to lesser generation of reactive oxygen species (ROS), thus reducing the yield of SA in comparison with application by spraying. Abiotic wounding stress activates the metabolic pathways involved in the production of phenolic compounds while the application of glyphosate makes it possible to block the flow of SA to the production of other compounds, thus bringing about an accumulation of SA in the horticultural crop. Thus the wounded carrots have been treated with a solution of glyphosate (0-482 g/L) using one of the two different methods of application (submergence and spraying), the spraying method being preferred because of its better yields, and stored for 24 hours to determine the combined effect of wounding stress and glyphosate application on the accumulation of SA and PC. In the first (submerged) method of application the grated material was submerged in a ratio of 1:2 to 1:4 (kg of plant material:liters of glyphosate solution), in such a way that said material was wholly submerged in the glyphosate solution. […]

carrots (Daucus carota) [8] = assay: HPLC-PDA quantification of SA and individual phenolic compounds in grated carrot sprayed with glyphosate at different concentrations (Example 5); conditions: after 24 hours' storage; estimated from HPLC-PDA
[9] = vs grated carrot before storage (0 hours)
[10] = sprayed 482 g/L glyphosate, vs control samples (0 hours)

## O=C(/C=C/c1ccc(O)c(O)c1)O[C@@H]1C[C@](O)(C(=O)O)C[C@@H](O)[C@H]1O (single isomer, unassigned) [CA, chlorogenic acid]
Carrots (Daucus carota) [1]
  Increase in concentration on spraying a concentrated solution of glyphosate onto carrot tissue stressed by wounding: > 5000%
Carrots (Daucus carota) [1]; vs control samples at 24 hours
  Increase in content in the 482 g/L glyphosate treatment: ~1980%
Carrots (Daucus carota) [2]; vs control samples at 24 hours
  Increase in content in the 482 g/L glyphosate treatment: ~1930%
Carrots (Daucus carota) [2]
  Increase in concentration in dehydrated glyphosated grated material stored for 24 hours: ~1700%
Carrots (Daucus carota) [3]; vs control samples at 24 hours
  Increase in content in the 482 g/L glyphosate treatment: ~1940%
Carrots (Daucus carota) [3]; [9]
  Increase in concentration in dehydrated glyphosated grated material stored for 24 hours: ~11620%

## O=C(O)C1=C[C@@H](O)[C@@H](O)[C@H](O)C1 (single isomer, unassigned) [SA, shikimic acid]
Carrots (Daucus carota) [4]
  Increase in concentration in grated carrot stored for 24 hours: ~50%
Carrots (Daucus carota) [5]; after drying
  Increase in concentration in dehydrated nutraceutical grated material stored for 24 hours: ~40%
Carrots (Daucus carota) [5]; no glyphosate
  Increase in concentration in grated carrot stored for 24 hours: ~45%
Carrots (Daucus carota) [6]; after drying and grinding
  Increase in concentration in nutraceutical powder stored for 24 hours: ~37%
Carrots (Daucus carota) [6]; no glyphosate
  Increase in concentration in grated carrot stored for 24 hours: ~48%
Carrots (Daucus carota) [7]
  Increase in accumulation, grated carrot sprayed with glyphosate vs submerged samples: ~44% and ≈ 44%
Carrots (Daucus carota) [8]
  Increase in concentration in grated carrot not sprayed with glyphosate: ~77%
Carrots (Daucus carota) [1]
  Increase in concentration on spraying a concentrated solution of glyphosate onto carrot tissue stressed by wounding: more than 1000%
Carrots (Daucus carota) [1]; [10]
  Increase in concentration after 24 hours of storage: ~1735%
Carrots (Daucus carota) [2]; [10]
  Increase in concentration after 24 hours' storage: ~1766%
Carrots (Daucus carota) [2]
  Increase in concentration in dehydrated glyphosated grated material stored for 24 hours: ~1550%
Carrots (Daucus carota) [3]; [10]
  Increase in concentration after 24 hours of storage: ~1720%
Carrots (Daucus carota) [3]; [9]
  Increase in concentration in glyphosated powder stored for 24 hours: ~1470%
